# Laboratory results as given in patent publication US12029730B2, “Pharmaceutical composition for preventing or treating cancer, containing N-1H-benzimidazol-2-yl-3-(1H-pyrrole-1-yl)benzamide as active ingredient” (KOREA INSTITUTE OF RADIOLOGICAL & MEDICAL SCIENCES, priority 2018, dated 2024).
# Columns and labels:
# Assay type in all cases: cell-based, human
# MCF7 cells [1] = assay: Colonogenic assay and western blotting with 2.5 Gy radiation, MCF7; conditions: for sensitivity to radiation therapy (colony number): MCF7, 2.5 Gy, compared to DMSO, FIG. 10A/10B
# Method: A colonogenic assay was performed in order to confirm whether the sensitivity to the radiation treatment effect can be increased when MCF7 cancer cell line was treated with MKI-1. First, breast cancer cells MCF7 (500-1000 cells) were placed in a 60-mm tissue culture medium on a 60 mm culture plate, and treated with MASTL kinase inhibitors (AT13148, MKI-1 and GKI-1), respectively, and then was treated with 2.5 Gy radiation by Biobeam GM8000 (Gamma-Gamma-Service Medical GmbH, Leipzig, Germany) and the control group was not treated with radiation. After 10 to 14 days, the cell colonies were fixed with methanol and stained with 0.5% crystal violet, and the results were shown in FIG. 10A, and the number of colonies shown in the above results was quantified using Image J software to show in 10B, and then western blotting was performed and the results thereof were shown in FIG. 10C.
# MCF7 cells [2] = assay: Colony formation analysis; conditions: MCF7, cultured 15 days, compared to DMSO, FIG. 7
# Method: Colony formation analysis was performed to confirm whether the selected MKI-1 can effectively kill cancer cells. First, breast cancer cells MCF7 (500-1000 cells) were cultured in a 60 mm culture plate, and after 24 hours, it was treated with MASTL kinase inhibitors (AT13148, MKI-1 and GKI-1), respectively and cultured for 15 days. Cells were fixed and stained with […] to which methanol was added to quantify the number of colonies, which was shown in FIG. 7.
# [3] = system: CD44^high/CD24^low MCF7 cells; assay: Colonogenic assay and western blotting with 2.5 Gy radiation, radioresistant CD44high/CD24low MCF7; conditions: for sensitivity to radiation therapy (colony number): CD44high/CD24low MCF7, 2.5 Gy, compared to DMSO, FIG. 11A/11B
# Method: A colonogenic assay was performed in order to confirm whether the sensitivity to the radiation treatment effect was increased even in the CD44^high/CD24^low MCF7 cancer cell line having a radioresistant phenotype, when it was treated with MKI-1. First, breast cancer cells CD44^high/CD24^low MCF7 (500-1000 cells) were placed in a 60-mm tissue culture medium on a 60 mm culture plate, and treated with MASTL kinase inhibitors (AT13148, MKI-1 and GKI-1), respectively, and then was treated with 2.5 Gy radiation by Biobeam GM8000 (Gamma-Gamma-Service Medical GmbH, Leipzig, Germany) and the control group was not treated with radiation. After 10 to 14 days, the cell colonies were fixed with methanol and stained with 0.5% crystal violet, and the results were shown in FIG. 11A, and the number of colonies shown in the above results was quantified using Image J software to show in 11B, and then western blotting was performed and the results thereof were shown in FIG. 11C.
# MCF7 cells [4] = assay: Tumorsphere formation assay; conditions: MCF7, cultured 15 days, compared to DMSO, FIG. 8
# Method: A tumorsphere formation assay was performed in order to determine whether the selected MKI-1 can effectively reduce the formation of tumorsphere in cancer cells, Breast cancer cells MCF7 (2500-10000 cells) was suspended in serum-free DMEM/F12 (weIGENE) containing 1% penicillin, B-27 (1:50; invitrogen), 20 ng/mL epidermal cell growth factor (R&D Systems) and 20 ng/mL fibroblast growth factor (R&D Systems) and cultured on plates with low adhesion rate. After 24 hours, the cells were treated with MASTL kinase inhibitors (AT13148, MKI-1 and GKI-1), respectively, and cultured for 15 days, and then the diameter of the tumorsphere was measured and quantified, which was shown in FIG. 8.
# MCF10A cells = assay: WST-8 cell viability assay, normal cell line MCF10A; conditions: for cell viability, normal cell line MCF10A: 3.70, 11.11, 33.33 and 100 μM, FIG. 6
# Method: In addition, the cell line in this experiment was distributed from ATCC (American Type Culture Collection; Manassas, VA). Human-derived tumor cell lines, breast cancer cell lines MCF7 and T47D was cultured in DMEM medium containing 10% fetal bovine serum (FBS; HyClone, South Logan, UT) and 1% penicillin/streptomycin (Corning, NY, USA) at 37° C. and 5% CO2, and the BT549 breast cancer cell line was cultured in RPMI 1640 (Welgene, Daegu, Korea) as a medium used under the same conditions. Human-derived normal cell line MCF10A was cultured in DMEM/F12 (Invitrogen) medium containing 5% horse serum (Invitrogen), 1% penicillin/streptomycin, 20 ng/ml EGF (Peprotech, London, UK), […] (Sigma-Aldrich, MO, USA), 100 ng/ml cholera toxin (Cholera Toxin, Sigma-Aldrich) and 10 μg Insulin (Sigma-Aldrich) at 37° C. and 5% CO2.
# Briefly, MCF7 and MCF10A cells were seeded into 96-well plates, incubated for 24 hours, and then was treated with 42 inhibitor candidates. Among the compounds, the multi-AGC kinase inhibitor AT13148 was used as a positive control. Thereafter, the absorbance was measured at 450 nm using a Versamax microplate reader (Molecular Devices, CA, USA), and the results of the experiment were shown in FIG. 1A.
# In order to confirm whether the selected MKI-1 can kill only cancer cells, an experiment was performed by treating with MKI-1 and measuring whether the cell viability of breast cancer cell lines and normal cell lines was changed. WST-8 analysis (Cyto X™ cell viability assay kit, LPS solution, Daejeon, Korea) was performed according to the manufacturer's protocol. Cancer cells MCF7 and BT549 and normal cell line MCF10A cells were inoculated into a 96-well plate, cultured for 24 hours, and then treated with MASTL kinase inhibitors at various concentrations (3.70, 11.11, 33.33 and 100 μM). Thereafter, the absorbance was measured at 450 nm using a Versamax micro plate reader (Molecular Devices, CA, USA), and the results were shown in FIG. 6.
# [5] = MCF7, after radiation treatment, FIG. 10C
# [6] = CD44high/CD24low MCF7, after radiation treatment, FIG. 11C
Structure (SMILES),sensitivity to radiation therapy (colony number) (MCF7 cells [1]),expression levels of cleaved-PARP and phosphorylated Chk2 (MCF7 cells [1]; [5]),expression levels of procaspase-2 (MCF7 cells [1]; [5]),number of cancer cell colonies (MCF7 cells [2]),sensitivity to radiation therapy (colony number) [3],"expression levels of cleaved-PARP and phosphorylated Chk2 [3, 6]","expression levels of procaspase-2 [3, 6]",tumorsphere diameter (MCF7 cells [4]),"cell viability, normal cell line MCF10A (MCF10A cells)","cell viability of normal cell line (MCF10A) (MCF10A cells; screen of 42 single compounds, FIG. 1A)"
"O=C(Nc1nc2ccccc2[nH]1)c1cccc(-n2cccc2)c1 [MKI-1, N-1H-benzimidazol-2-yl-3-(1H-pyrrol-1-yl) benzamide]",significantly higher,increased,decreased,significantly reduced,significant increase in sensitivity to radiation treatment,increased,decreased,significantly decreased,hardly decrease cell viability,maintained as high as that of the control group DMSO
"Clc1ccc(Nc2cccc(-c3cn[nH]c3)c2)cc1 [GKI-1, N-(4-chlorophenyl)-3-(1H-pyrazol-4-yl)aniline, reference compound]",no synergistic effect,–,–,hardly decreased,no synergistic effect,–,–,hardly decreased,hardly decrease cell viability,–
